Test results taken from PMC5634933 (Biochemistry, 2017).
Like-named read-outs stand apart in the source and are kept apart here.

Assays:
Assay type in all cases: biochemical
WT pol β [1] = target: WT pol β (Homo sapiens, UniProt P06746); conditions: WT; for Kd / kpol: 37 °C
I260M pol β = I260M pol β (Homo sapiens, UniProt P06746, I260M); conditions: for Kd / kpol: 37 °C
WT pol β [2] = conditions: D kpol WT analogue/D kpol I260M analogue
[3] = A-G: misincorporation of dGTP (analogue) opposite template A
[4] = I260M, A-G: misincorporation of dGTP (analogue) opposite template A
[5] = A-T: correct incorporation of dTTP (analogue) opposite template A
[6] = I260M, A-T: correct incorporation of dTTP (analogue) opposite template A

Nc1nc2c(ncn2[C@H]2C[C@H](O)[C@@H](COP(=O)(O)OP(=O)(O)OP(=O)(O)O)O2)c(=O)[nH]1 [A-G O, dGTP, reference compound]
Efficiency (kpol/Kd) (WT pol β [1]; [3]): 22 ± 8.5 M⁻¹ s⁻¹
Kd (WT pol β [1]; [3]): 626 ± 220 µM
kpol (WT pol β [1]; [3]): 0.014 ± 0.002 s⁻¹
Efficiency (kpol/Kd) (I260M pol β; [4]): 18 ± 9.1 M⁻¹ s⁻¹
Kd (I260M pol β; [4]): 795 ± 373 µM
kpol (I260M pol β; [4]): 0.014 ± 0.003 s⁻¹

Cc1cn([C@H]2C[C@H](O)[C@@H](COP(=O)(O)OP(=O)(O)OP(=O)(O)O)O2)c(=O)[nH]c1=O [A-T O, dTTP, reference compound]
Efficiency (kpol/Kd) (WT pol β [1]; [5]): 1.22e+06 ± 140000 M⁻¹ s⁻¹
Kd (WT pol β [1]; [5]): 10.5 ± 1.1 µM
kpol (WT pol β [1]; [5]): 12.8 ± 0.60 s⁻¹
kpol (WT pol β [1]; A-T: correct incorporation of dTTP (analogue) opposite template A, listed as dTTP): 12.8 s⁻¹
Efficiency (kpol/Kd) (I260M pol β; [6]): 200000 ± 80000 M⁻¹ s⁻¹
Kd (I260M pol β; [6]): 40.1 ± 15.5 µM
kpol (I260M pol β; [6]): 7.90 ± 1.30 s⁻¹
kpol (I260M pol β; I260M, A-T: correct incorporation of dTTP (analogue) opposite template A, listed as dTTP): 7.9 s⁻¹
Kd of I260M relative to WT (fold higher) (I260M pol β; correct parent dTTP): 4 fold

Cc1cn([C@H]2C[C@H](O)[C@@H](COP(=O)(O)OP(=O)(O)CP(=O)(O)O)O2)c(=O)[nH]c1=O [A-T CH2, β,γ-CH2 dTTP]
Efficiency (kpol/Kd) (WT pol β [1]; [5]): 120000 ± 30000 M⁻¹ s⁻¹
Kd (WT pol β [1]; [5]): 6.7 ± 1.8 µM
kpol (WT pol β [1]; [5]): 0.80 ± 0.10 s⁻¹
Efficiency (kpol/Kd) (I260M pol β; [6]): 60000 ± 20000 M⁻¹ s⁻¹
Kd (I260M pol β; [6]): 5 ± 1.5 µM
kpol (I260M pol β; [6]): 0.30 ± 0.01 s⁻¹

CHCl
D kpol (analogue/parent) (WT pol β [1]; D kpol analogue/D kpol parent): 0.9
F (analogue/parent) (WT pol β [1]; F analogue/F parent): 0.5
F analogue (fidelity) (WT pol β [1]; dTTP (correct) vs dGTP (incorrect) analogue opposite template A): 27818
D kpol(c/i) analogue (WT pol β [1]; discrimination at kpol = kpol(correct)/kpol (incorrect)): 842.9
D kpol analogue WT/I260M (WT pol β [2]): 1.5
D kpol (analogue/parent) (I260M pol β; I260M, D kpol analogue/D kpol parent): 1.0
F (analogue/parent) (I260M pol β; I260M, F analogue/F parent): 0.6
F analogue (fidelity) (I260M pol β; I260M, dTTP (correct) vs dGTP (incorrect) analogue opposite template A): 7060
D kpol(c/i) analogue (I260M pol β; I260M, discrimination at kpol = kpol(correct)/kpol (incorrect)): 551.7
I260M/WT analogue (I260M pol β; [F I260M(analogue)]/[F WT (analogue)]): 0.3
I260M/WT (analogue/parent) (I260M pol β; [F I260M(analogue/parent)]/[F WT (analogue/parent)]): 1.3
